According to patent US9492450B2, “Inhibition of dynamin related protein 1 to promote cell death” (University of Pittsburgh—of the Commonwealth System of …, priority 2011, dated 2016):

What was measured:
MDA-MB-231 cells [1] = assay: DNA content flow cytometry (propidium iodide): G2/M arrest and aneuploidy; format: cell-based, human; settings: mdivi-1 50 μM 24 and 48 h, siRNA 72 and 96 h
Protocol: Cell cycle distribution was determined by flow cytometric analysis of propidium iodide stained cells. The percentage of the cells containing a DNA content of 4N and a DNA content>4N are indicated. […] MDA-MB-231 cells were treated with either 5 μg/ml oligomycin, 5 μM FCCP, or 10 μg/ml antimycin A for 24 h. Cell cycle distribution was determined as described above.
Cell cycle distribution was determined by flow cytometric analysis of propidium iodide stained cells. The percentage of the cells containing a DNA content of 4N and >4N are indicated. Data presented in this figure are representative of three independent experiments.
For DNA content analysis, cells were trypsinized and fixed in 70% ice-cold ethanol overnight at 4° C. After fixation, the cells were washed with 1% BSA/PBS, and permeabilized using 0.25% triton-X 100 in 1% BSA/PBS. Cells were then incubated in PI solution (PBS containing 50 μg/ml of PI and 40 μg/ml of RNase A) for 30 min at room temperature.

MDA-MB-231 cells [2] = assay: Cisplatin cytotoxicity under Drp1 inhibition (subG1, LIVE/DEAD kit, caspase Western blot); format: cell-based, human
Protocol: To test the effect of Drp-1 inhibition on the effectiveness of cisplatin, in a first series of experiments, MDA-MB-231 cells were transfected with control or Drp1 siRNA, and 48 hours later were then treated with 40 μM of cisplatin for a 24 hour period. The effect of different concentrations of cisplatin on the Drp1 knockdown cells is shown in FIG. 13A, where the subG1 portion in the cell cycle profile indicates cytotoxicity. In a second series of experiments, a LIVE/DEAD Viability/Cytotoxicity kit (Invitrogen) was used to evaluate the effect of inhibition of Drp1 by mdivi-1 on cisplatin cytotoxicity. In this test, the percentage of lice and dead cells are determined simultaneously with two probes, calcein AM and ethidium homodimer (EthD-1). […] EthD-1 is excluded by the intact plasma membrane of live cells but is able to enter cells with damaged membranes and undergo a 40-fold enhancement of red fluorescence upon binding to nucleic acids. […] Calcein AM and EthD-1 were added to the cell suspension at final concentrations of 0.1 μM and 8 μM, respectively, Fluorescence intensity was analyzed on a CyAn ADP Analyzer (Beckman Coulter, Brea, Calif.) and the results were analyzed using Summit software. The live-cell population that was positively stained with calcein was detected in the bottom right region and indicated with an arrow. […]

Structure (SMILES): COc1cc(-n2c(=S)[nH]c3ccccc3c2=O)c(Cl)cc1Cl [mdivi-1]
- G2/M cell cycle arrest and aneuploidy (MDA-MB-231 cells [1]): induces G2/M cell cycle arrest and aneuploidy
- G2/M cell cycle arrest and aneuploidy (MDA-MB-231 cells [1]; listed as Mdivi-1): induced the similar G2/M cell cycle arrest and aneuploidy
- number of dead cells after cisplatin, coadministered with mdivi-1 (MDA-MB-231 cells [2]; 50 μM mdivi-1, 12 hours, LIVE/DEAD kit): increased
- number of apoptotic cells after cisplatin, coadministered with mdivi-1 (MDA-MB-231 cells [2]; caspase activation by Western Blot): increased
